Experimental data from US10906920B2, “Heterocyclic compounds as immunomodulators” (Incyte Corporation, priority 2018, dated 2021).

Tests used:
[1] = tested on: PD-L1 aAPC/CHO-K1 cells and Jurkat-PD-1-NFAT effector cells; experiment: Nuclear factor of activated T-cells (NFAT) assay; assay type: cell-based
Procedure: The culture media of PD-L1 aAPC/CHO-K1 cells were first replaced with assay medium (RPMI1640 medium with 1% FBS). […] The assay plate was incubated at 37° C., 5% CO2 for 24 hours. […] After 8 minutes incubation at room temperature, luminescence was read at with Pherastar microplate reader (BMG Labtech). The fold of induction (FOI) was calculated based on the ratio of luminescence normalized to the DMSO wells within each assay plate. The maximum percentage of induction was reported based on the ratio between the highest FOI of each compound and the maximum FOI of control compound within each assay plate. Wells with DMSO were served as the negative controls and wells containing control compound with the highest FOI were used as positive controls. EC50 determination was performed by fitting the curve of percent control activity versus the log of the compound concentration using the GraphPad Prism 6.0 software.

[2] = tested on: U2OS/PD-L1 cells and Jurkat-PD-1-SHP cells; experiment: Src homology region 2 domain-containing phosphatase (SHP) assay; assay type: cell-based; conditions: Homo sapiens
Procedure: Example B. Src Homology Region 2 Domain-Containing Phosphatase (SHP) Assay
U2OS/PD-L1 cells (DiscoveRx Corporation) were maintained in McCoy's 5A medium with addition of 10% FBS, 0.25 μg/ml Puromycin. After removing the culture media, the cell medium was replaced with assay medium (RPMI1640 medium with 1% FBS). The U2OS/PD-L1 cells were then added in 384-well black clear bottom assay plate (CELLCOAT® Tissue Culture Plates, Greiner Bio-One) at 5000 cells per well in 20 μL assay medium. Test compounds were prepared by serial dilution in DMSO and 125 nL compound were first transferred to the 384 REMP plate well (Thermofisher) by ECHO liquid handler (Labcyte) followed with addition of 27.5 μL assay medium. 5 μL/well compounds in the assay medium were transferred to the cell plate with 0.05% DMSO in the final assay at 0.25 Jurkat-PD-1-SHP cells (DiscoveRx Corporation) were cultured in RPMI1640 medium supplemented with 10% FBS, 250 μg/ml Hygromycin B, 500 μg/ml G418. After the replacement of culture media with assay medium, 5,000 Jurkat-PD-1-SHP cells in 20 μL were dispensed into each well. The assay plate was incubated at 37° C., 5% CO2 for 2 hours before 2.5 μL PathHunter reagent 1 (DiscoveRx Corporation) were added to each well. […] Chemiluminescent signal was recorded with TopCount reader (Perkin Elmer) after incubation at room temperature for 1 hour. […]

Compound | EC50 [1] [nM] | IC50 [2] [nM]
Cn1c(C(=O)Nc2cccc(-c3cccc(NC(=O)c4nc5c(n4C)CCN(CC(C)(C)C(=O)O)C5)c3Cl)c2Cl)nc2c1CCN(CCC13CCC(C(=O)O)(CC1)C3)C2 [Example 21, 4-(2-(2-((3′-(5-(2-carboxy-2-methylpropyl)-1-methyl-4,5,6,7-tetrahydro-1H-imidazo[4,5-c]pyridine-2-carboxamido)-2,2′-dichloro-[1,1′-biphenyl]-3-yl)carbamoyl)-1-methyl-1,4,6,7-tetrahydro-5H-imidazo[4,5-c]pyridin-5-yl)ethyl)bicyclo[2.2.1]heptane-1-carboxylic acid] | 10 to 100 | –
Cn1c(C(=O)Nc2cccc(-c3cccc(NC(=O)c4nc5c(n4C)CCN(CCC46CCC(C(=O)O)(CC4)C6)C5)c3Cl)c2Cl)nc2c1CCN(CCCCC(=O)O)C2 [Example 63, 4-(2-(2-((3′-(5-(4-carboxybutyl)-1-methyl-4,5,6,7-tetrahydro-1H-imidazo[4,5-c]pyridine-2-carboxamido)-2,2′-dichloro-[1,1′-biphenyl]-3-yl)carbamoyl)-1-methyl-1,4,6,7-tetrahydro-5H-imidazo[4,5-c]pyridin-5-yl)ethyl)bicyclo[2.2.1]heptane-1-carboxylic acid] | – | ≤ 10
